{"source": "paper PMC12516397", "about": "(ACS Medicinal Chemistry Letters, 2025)", "key": {"[1]": {"target": "SARS-CoV-2 main protease (Mpro) (Severe acute respiratory syndrome coronavirus 2, UniProt P0DTD1)", "test": "biochemical"}, "[2]": {"system": "Vero E6 cells", "details": "72 h"}, "[3]": {"details": "pH 5"}}, "note": "No end group written: not given here."}
{"substance": "FLQWFSKFLGRIL-NH2 [TLP-1]", "values": [{"measurement": "IC50", "setting": "[1]", "value": "11.4 ± 1.5", "unit": "µM"}, {"measurement": "CC50, cellular viability", "setting": "[2]", "value": 4.65, "unit": "µM"}, {"measurement": "Solubility", "setting": "[3]", "value": "limited peptide solubility"}]}
{"substance": "FVQWFSKFLGRIL-NH2 [Temporin L, reference compound]", "values": [{"measurement": "IC50", "setting": "[1]", "value": "39 ± 4.5", "unit": "µM"}, {"measurement": "CC50, cellular viability", "setting": "[2]", "value": 6.78, "unit": "µM"}]}
{"substance": "SAFWQWFSKFLGR-NH2 [TLP-3]", "values": [{"measurement": "IC50", "setting": "[1]", "value": "7 ± 1.5", "unit": "µM"}, {"measurement": "CC50, cellular viability", "setting": "[2]", "value": 14.91, "unit": "µM"}, {"measurement": "Solubility", "setting": "[3]", "value": "limited peptide solubility"}]}
{"substance": "SAYWQWFSKFLGRIL-NH2 [TLP-2]", "values": [{"measurement": "IC50", "setting": "[1]", "value": "11.5 ± 1", "unit": "µM"}, {"measurement": "CC50, cellular viability", "setting": "[2]", "value": 2.56, "unit": "µM"}, {"measurement": "Solubility", "setting": "[3]", "value": "limited peptide solubility"}]}
